Laboratory results as given in patent publication US20260256780A1, “COMPOSITIONS FOR INDUCING RAS GTP HYDROLYSIS AND USES THEREOF” (Revolution Medicines, Inc., priority 2023, published 2026).

What follows are molecules tested on GTP-loaded KRAS proteins (residue 1-169 of KRAS4B) (assay: RAS GTP hydrolysis rate assay (GTPase-Glo) with cyclophilin A). Details: 10 μM compound, 25 μM cyclophilin A, 37° C.
Type: biochemical
Protocol: (§1) The rate of RAS GTP hydrolysis was assayed in the presence of various KRAS mutations. To assess GTP hydrolysis activity, recombinant KRAS proteins (residue 1-169 of KRAS4B) were expressed in E. coli and purified using a TEV protease-cleavable His6-tag and Ni^2+ affinity chromatography. The His6 tag was removed by treatment with TEV protease, and the KRAS protein was isolated by passing through a second Ni^2+ column followed by size exclusion chromatography. The purified KRAS proteins were loaded with GTP by incubation for 2 hours on ice with 2 mM GTP and 10 mM Ethylenediaminetetraacetic Acid, followed by addition of 10 mM MgCl2 and incubation on ice for 1 additional hour. The excess GTP was removed by overnight dialysis against buffer (12.5 mM HEPES, 75 mM NaCl, pH 7.5) at 4° C. The GTP-loaded KRAS protein were flash frozen in liquid nitrogen, then stored at −80° C. until use.
(§2) GTP-loaded KRAS proteins (1 μM) were combined with 25 μM of recombinant human cyclophilin A and 10 μM of compound in reaction buffer (12.5 mM HEPES, 75 mM NaCl, 1 mM MgCl2, 1 mM DTT, 1% DMSO, pH 7.5) pre-warmed to 37° C. At fixed time points, aliquots were removed and quenched by heating to 80° C. to denature the proteins, then centrifuged to pellet the protein precipitate. The supernatant was assessed for GTP levels using Promega GTPase-Glo™ according to manufacturer instructions. The levels of GTP as a function of incubation time were fit to a single phase exponential decay to determine the rate constant for hydrolysis activity.

RAS GTP hydrolysis activation | Compound
does not activate GTP hydrolysis | CCn1c(-c2cccnc2[C@H](C)OC)c2c3cc(ccc31)-c1cc(O)cc(c1)C[C@H](NC(=O)[C@H](C(C)C)N(C)C(=O)C1(C#N)CC1)C(=O)N1CCC[C@H](N1)C(=O)OCC(C)(C)C2 (racemic) [Compound F, reference compound]

Each molecule was assayed against T1, GTP-loaded KRAS proteins (residue 1-169 of KRAS4B) (Homo sapiens, UniProt P01116, G12V) in the same assay as above. Details: bound in tri-complex with cyclophilin A; in some embodiments KRAS^G12V is the isoform used.
T1 construct: recombinant KRAS proteins (residue 1-169 of KRAS4B); His6 (TEV protease-cleavable) (cleaved yes); made in house; host or cells: E. coli
Type: biochemical
Protocol: as §1, §2

Compound | hydrolyzer class: RAS(ON) GTP hydrolysis rate relative to the intrinsic hydrolysis rate
CCO[C@@H]1c2nc(cs2)-c2ccc3c(c2)c(c(-c2cc(N4CCN(C)CC4)cnc2[C@H](C)OC)n3CC)CC(C)(C)COC(=O)[C@@H]2CCCN(N2)C(=O)[C@H]1NC(=O)[C@H]1[C@H](C)[C@@H]1C (atropisomer, axis not shown) [compound 15] | 15 Moderate
CCO[C@@H]1c2nc(cs2)-c2ccc3c(c2)c(c(-c2cc([C@@H]4CCN5CCOC[C@@H]5C4)cnc2[C@H](C)OC)n3CC)CC(C)(C)COC(=O)[C@@H]2CCCN(N2)C(=O)[C@H]1NC(=O)[C@H]1[C@H](C)[C@@H]1C (atropisomer, axis not shown) [compound 16] | 16 Moderate
CCn1c(-c2cccnc2[C@H](C)OC)c2c3cc(ccc31)-c1csc(n1)C[C@H](NC(=O)[C@H](C(C)C)N(C)C(=O)N1CC(OC)C1)C(=O)N1CCC[C@H](N1)C(=O)OCC(C)(C)C2 (atropisomer, axis not shown) [compound 19] | 19 Moderate
CCn1c(-c2cc(N3CCN(C)CC3)cnc2[C@H](C)OC)c2c3cc(ccc31)-c1cccc(c1)C[C@H](NC(=O)[C@H]1C[C@@H]1C)C(=O)N1CCC[C@H](N1)C(=O)OCC(C)(C)C2 (atropisomer, axis not shown) [compound 20] | 20 Weak
CCn1c(-c2cc(N3CCN(C)CC3)cnc2[C@H](C)OC)c2c3cc(ccc31)-c1csc(n1)C[C@H](NC(=O)[C@H](C(C)C)N(C)C(=O)N(C)C)C(=O)N1CCC[C@H](N1)C(=O)OCC(C)(C)C2 (atropisomer, axis not shown) [compound 13] | 13 Moderate
CO[C@@H](C)c1ncccc1-c1c2c3cc(ccc3n1CC(F)(F)F)CCOC[C@H](NC(=O)[C@H]1C[C@@H]1C)C(=O)N1CCC[C@H](N1)C(=O)OCC(C)(C)C2 (atropisomer, axis not shown) [compound 10] | 10 Moderate

Second part, the molecule after the results:

hydrolyzer class: RAS(ON) GTP hydrolysis rate relative to the intrinsic hydrolysis rate | Compound
22 Weak | CCn1c(-c2cc(N3CCN(C)CC3)cnc2[C@H](C)OC)c2c3cc(ccc31)N1CCO[C@@H](C[C@H](NC(=O)[C@H]3C[C@@H]3C)C(=O)N3CCC[C@H](N3)C(=O)OCC(C)(C)C2)C1 (atropisomer, axis not shown) [compound 22]
21 Weak | CCn1c(-c2cc(N3CCN(C)CC3)cnc2[C@H](C)OC)c2c3cc(ccc31)-c1cccc(n1)C[C@H](NC(=O)[C@H]1C[C@@H]1C)C(=O)N1CCC[C@H](N1)C(=O)OCC(C)(C)C2 (atropisomer, axis not shown) [compound 21]
11 Moderate | CO[C@@H](C)c1ncc(N2CCN(C)CC2)cc1-c1c2c3cc(ccc3n1CC(F)(F)F)-c1csc(n1)C[C@H](NC(=O)[C@H]1C[C@@H]1C)C(=O)N1CCC[C@H](N1)C(=O)OCC(C)(C)C2 (atropisomer, axis not shown) [compound 11]
12 Moderate | CCn1c(-c2cc(N3CCN(C)CC3)cnc2[C@H](C)OC)c2c3cc(ccc31)-c1csc(n1)C[C@H](NC(=O)[C@H]1C[C@@H]1C)C(=O)N1CCC[C@H](N1)C(=O)OCC(C)(C)C2 (atropisomer, axis not shown) [compound 12]
9 Weak | CO[C@@H](C)c1ncccc1-c1c2c3cc(ccc3n1CC(F)(F)F)CCN(C)C[C@H](NC(=O)[C@H]1C[C@@H]1C)C(=O)N1CCC[C@H](N1)C(=O)OCC(C)(C)C2 (atropisomer, axis not shown) [compound 9]
17 Weak | CCO[C@@H]1c2nc(cs2)-c2ccc3c(c2)c(c(-c2cccnc2[C@H](C)OC)n3CC)CC(C)(C)COC(=O)[C@@H]2CCCN(N2)C(=O)[C@H]1NC(=O)[C@@H]1[C@@H](C)[C@H]1C(=O)N(C)C (atropisomer, axis not shown) [compound 17]
14 Moderate | CCn1c(-c2cc(N3CCN(C)CC3)cnc2[C@H](C)OC)c2c3cc(ccc31)-c1csc(n1)C[C@H](NC(=O)[C@H](C(C)C)N(C)C(=O)N1CC(N(C)C)C1)C(=O)N1CCC[C@H](N1)C(=O)OCC(C)(C)C2 (atropisomer, axis not shown) [compound 14]
18 Weak | CCO[C@@H]1c2nc(cs2)-c2ccc3c(c2)c(c(-c2cc(N4CCN(C)CC4)cnc2[C@H](C)OC)n3CCOC(C)C)CC(C)(C)COC(=O)[C@@H]2CCCN(N2)C(=O)[C@H]1NC(=O)N1CC[C@H]1C (atropisomer, axis not shown) [compound 18]
